Measurements from patent publication US20140005164A1, “WNT PATHWAY ANTAGONISTS” (Siena Biotech S.p.A., priority 2011, published 2014).
Read-outs that look alike come from different tables or passages of the source.

System: Wnt/β-catenin pathway
Assay: Wnt reporter assay (TCF-Luciferase, Firefly) in DBTRG-05MG cells
Format: cell-based
Details: Homo sapiens, read-out: IC50 value in the reporter assay
Method: Three copies of a 4×TCF responsive elements were cloned into the pcDNA3.1/Zeo(+) vector (Invitrogen) after deletion of the constitutive CMV promoter and the insertion of the Firefly Luciferase from Promega (phFL-TK) to measure the activity of the Wnt/β-catenin pathway. The resulting plasmid was sequenced for quality control.
Cells were grown in 20 μg/ml Zeocin and 20 μg/ml Zeocin plus 30 μg/ml Hygromicin respectively. The cells were plated at a density of 6500 cells/well in poly-D-lysine pre-treated 96 well-plates.
36 hours after plating cells were incubated with 8-points dilutions compound (0.6% DMSO (v/v)). Each compound was tested in triplicate in single plate. Luciferase detection was done with Dual-Luciferase Reporter Assay System (Promega). 24 hours after compound addition, media was removed and 30 μl of 1× lysis buffer was added to each well for 30 minutes. To each well 45 μl of Dual-Glo Luciferase reagent (Promega) were added and after 1 second delay Luciferase was detected for 1 second using Mithras LB940 instrument. After Firefly luciferase quantification 45 μl of Dual Stop & Glo reagent (Promega) were added to each well and […] Renilla was detected using the same parameters described before.
Data were expressed as % of control for Firefly and Renilla luciferase independently; values were calculated using XLFit version 4.2, with a four parameters sigmoid function (XLFit model 205).

[1] = TCF-Luciferase (Firefly) read out, 24 hours after compound addition, range given with mixed units nM and μM

SMILES	IC50 [1] [nM]	IC50 (24 h) [nM]
COc1cc2c(cc1Cl)n(C[C@H]1CC[C@H](C(=O)N3CCN(c4ncccn4)CC3)CC1)c(=O)n2C [Example 46]	35 to 23000	–
Cn1c(=O)n(C[C@H]2CC[C@H](C(=O)Nc3ccncc3)CC2)c2nc(OCCN3CCOCC3)ccc21 [Example 158]	35 to 23000	–
Cn1c(=O)n(C[C@H]2CC[C@H](C(=O)Nc3ccncc3)CC2)c2nc(OCC3CCCCO3)ccc21 (stereo partly drawn) [Example 168]	35 to 23000	–
COc1ccc2c(c1)n(C[C@H]1CC[C@H](C(=O)Nc3ccc(N4C[C@@H](C)O[C@@H](C)C4)nc3)CC1)c(=O)n2C [Example 64]	35 to 23000	–
COc1ccc2c(c1)n(C[C@H]1CC[C@H](C(=O)N3CCN(c4ncc(Br)cn4)CC3)CC1)c(=O)n2C [Example 80]	35 to 23000	–
Cn1c(=O)n(C[C@H]2CC[C@H](C(=O)N3CCN(c4ncccn4)CC3)CC2)c2ccc(Cl)cc21 [Example 55]	35 to 23000	–
Cn1c(=O)n(C[C@H]2CC[C@H](C(=O)Nc3ccncc3)CC2)c2cc(OCCCC#N)ccc21 [Example 136]	35 to 23000	–
Cn1c(=O)n(C[C@H]2CC[C@H](C(=O)Nc3ccncc3)CC2)c2ncccc21 [Example 142]	35 to 23000	–
CCC(=O)CN1CCN(C(=O)[C@H]2CC[C@H](Cn3c(=O)n(C)c4ccc(OC)cc43)CC2)CC1=O [Example 7, 5-Methoxy-1-methyl-3-{trans-4-[3-oxo-4-(2-oxo-butyl)-piperazine-1-carbonyl]-cyclohexylmethyl}-1,3-dihydro-benzoimidazol-2-one]	35 to 23000	–
Cc1cc(NC(=O)[C@H]2CC[C@H](Cn3c(=O)n(C)c4ccc(Cl)cc43)CC2)ccn1 [Example 39]	35 to 23000	–
Cn1c(=O)n(C[C@H]2CC[C@H](C(=O)Nc3ccncc3)CC2)c2nc(C3CC3)ccc21 [Example 170]	35 to 23000	–
COc1ccc2c(c1)n(C[C@H]1CC[C@H](C(=O)Nc3ccnc(N4CCOCC4)c3)CC1)c(=O)n2C [Example 50]	35 to 23000	–
COc1ccc2c(c1)n(C[C@H]1CC[C@H](C(=O)N3CCN(C(=O)[C@H]4CCC(=O)O4)CC3)CC1)c(=O)n2C [Example 75]	35 to 23000	–
COc1ccc2c(c1)n(C[C@H]1CC[C@H](C(=O)N3CCC(F)(F)CC3)CC1)c(=O)n2C [Example 35]	35 to 23000	–
COCCOc1ccc2c(n1)n(C[C@H]1CC[C@H](C(=O)Nc3ccncc3)CC1)c(=O)n2C [Example 150]	35 to 23000	–
COc1ccc2c(c1)n(C[C@H]1CC[C@H](C(=O)N3CCN(c4ccc(C(F)(F)F)nc4)CC3)CC1)c(=O)n2C [Example 90]	35 to 23000	–
CC(=O)N1CCN(C(=O)[C@H]2CC[C@H](Cn3c(=O)n(C)c4ccc(O)cc43)CC2)CC1 [Example 16, 3-[trans-4-(4-Acetyl-piperazine-1-carbonyl)-cyclohexylmethyl]-5-hydroxy-1-methyl-1,3-dihydro-benzoimidazol-2-one]	35 to 23000	–
Cn1c(=O)n(C[C@H]2CC[C@H](C(=O)N3CCN(c4ccncc4)CC3)CC2)c2cc(C(F)(F)F)ccc21 [Example 73]	35 to 23000	–
Cn1c(=O)n(C[C@H]2CC[C@H](C(=O)Nc3ccncc3)CC2)c2nc(Br)ccc21 [Example 116]	35 to 23000	–

SMILES	IC50 [1] [nM]	IC50 (24 h) [nM]
COc1ccc2c(c1)n(C[C@H]1CC[C@H](C(=O)N3CCC(C(C)=O)CC3)CC1)c(=O)n2C [Example 81]	35 to 23000	–
COc1cc2c(cc1F)n(C)c(=O)n2C[C@H]1CC[C@H](C(=O)N2CCOCC2)CC1 [Example 160]	35 to 23000	–
COCCOc1cc(NC(=O)[C@H]2CC[C@H](Cn3c(=O)n(C)c4ccc(Cl)cc43)CC2)ccn1 [Example 40]	35 to 23000	–
Cn1cc(C2=CCN(C(=O)[C@H]3CC[C@H](Cn4c(=O)n(C)c5ccc(OC(F)F)cc54)CC3)CC2)cn1 [Example 166]	35 to 23000	–
COc1cccc(COc2ccc3c(n2)n(C[C@H]2CC[C@H](C(=O)Nc4ccncc4)CC2)c(=O)n3C)c1 [Example 10, Trans-4-[5-(3-Methoxy-benzyloxy)-1-methyl-2-oxo-1,2-dihydro-imidazo[4,5-b]pyridin-3-ylmethyl]-cyclohexane carboxylic acid pyridin-4-ylamide]	–	35 to 23000
COC/C=C/c1ccc2c(n1)n(C[C@H]1CC[C@H](C(=O)N3CCN(C(C)=O)CC3)CC1)c(=O)n2C [Example 4, 3-[Trans-4-(4-Acetyl-piperazine-1-carbonyl)-cyclohexylmethyl]-5-((E)-3-methoxy-propenyl)-1-methyl-1,3-dihydro-imidazo[4,5-b]pyridin-2-one]	35 to 23000	–
Cn1c(=O)n(C[C@H]2CC[C@H](C(=O)Nc3ccncc3)CC2)c2nc(OCc3ccccn3)ccc21 [Example 156]	35 to 23000	–
Cn1c(=O)n(C[C@H]2CC[C@H](C(=O)N3CCN(c4ncccn4)CC3)CC2)c2cc(Cl)ccc21 [Example 47]	35 to 23000	–
Cn1c(=O)n(C[C@H]2CC[C@H](C(=O)Nc3ccnc(N4CCOCC4)c3)CC2)c2cc(Cl)ccc21 [Example 41]	35 to 23000	–
Cn1c(=O)n(C[C@H]2CC[C@H](C(=O)Nc3ccncc3)CC2)c2nc(OCC(F)(F)F)ccc21 [Example 171]	35 to 23000	–
COc1cc2c(cc1F)n(C)c(=O)n2C[C@H]1CC[C@H](C(=O)Nc2ccncn2)CC1 [Example 159]	35 to 23000	–
COc1ccc2c(n1)n(C[C@H]1CC[C@H](C(=O)N3CCN(c4ncccn4)CC3)CC1)c(=O)n2C [Example 26]	35 to 23000	–
COc1ccc2c(c1)n(C[C@H]1CC[C@H](C(=O)N3CCN(c4ccc(C#N)nc4)CC3)CC1)c(=O)n2C [Example 88]	35 to 23000	–
Cn1c(=O)n(C[C@H]2CC[C@H](C(=O)Nc3ccncc3)CC2)c2cc(OC(F)F)ccc21 [Example 165]	35 to 23000	–
COCCOc1cc(NC(=O)[C@H]2CC[C@H](Cn3c(=O)n(C)c4c(Cl)cccc43)CC2)ccn1 [Example 42]	35 to 23000	–
Cn1c(=O)n(C[C@H]2CC[C@H](C(=O)Nc3ccncc3)CC2)c2nc(OCC#N)ccc21 [Example 167]	35 to 23000	–
Cn1c(=O)n(C[C@H]2CC[C@H](C(=O)N3CCN(c4nccs4)CC3)CC2)c2cc(C(F)(F)F)ccc21 [Example 24]	35 to 23000	–
Cn1c(=O)n(C[C@H]2CC[C@H](C(=O)Nc3ccncc3)CC2)c2cc(OCCC=C(F)F)ccc21 [Example 138]	35 to 23000	–
Cn1c(=O)n(C[C@H]2CC[C@H](C(=O)Nc3ccncc3)CC2)c2nc(NCc3cccnc3)ccc21 [Example 126]	35 to 23000	–

Second part, led by results:

IC50 [1] [nM]	SMILES	IC50 (24 h) [nM]
35 to 23000	CCOc1ccc2c(c1)n(C[C@H]1CC[C@H](C(=O)Nc3ccncc3)CC1)c(=O)n2C [Example 17]	–
35 to 23000	COc1ccc2c(c1)n(C[C@H]1CC[C@H](c3noc(-c4cccnc4)n3)CC1)c(=O)n2C [Example 172]	–
35 to 23000	COc1ccc2c(c1)n(C[C@H]1CC[C@H](C(=O)Nc3ccnc(C)c3)CC1)c(=O)n2C [Example 33]	–
35 to 23000	COc1ccc2c(c1)n(C[C@H]1CC[C@H](C(=O)Nc3ccncc3C)CC1)c(=O)n2C [Example 30]	–
35 to 23000	COc1ccc2c(c1)n(C[C@H]1CC[C@H](c3nnc(-c4cnc(C)cn4)o3)CC1)c(=O)n2C [Example 128]	–
35 to 23000	COc1ccc2c(c1)n(C[C@H]1CC[C@H](C(=O)Nc3ccnnc3)CC1)c(=O)n2C [Example 100]	–
35 to 23000	COc1ccc2c(c1)n(C[C@H]1CC[C@H](C(=O)N3CCNC(=O)C3)CC1)c(=O)n2C [Example 105]	–
35 to 23000	COc1ccc2c(c1)n(C[C@H]1CC[C@H](c3nnc(-c4cc(C)nn4C)o3)CC1)c(=O)n2C [Example 149]	–
35 to 23000	COc1ccc2c(c1)n(C[C@H]1CC[C@H](C(=O)Nc3ccc(OC)nc3)CC1)c(=O)n2C [Example 31]	–
35 to 23000	Cn1c(=O)n(C[C@H]2CC[C@H](c3nnc(-c4cccnc4)o3)CC2)c2cc(C#N)ccc21 [Example 124]	–
35 to 23000	COc1ccc2c(c1)n(C[C@H]1CC[C@H](c3nnc(-c4ccnnc4)o3)CC1)c(=O)n2C [Example 164]	–
35 to 23000	COc1ccc2c(c1)n(C[C@H]1CC[C@H](C(=O)N3CCN(c4cc(C)no4)CC3)CC1)c(=O)n2C [Example 144]	–
35 to 23000	COc1ccc2c(c1)n(C[C@H]1CC[C@H](C(=O)Nc3cccc(C)n3)CC1)c(=O)n2C [Example 34]	–
35 to 23000	COCCOc1ccc2c(c1)n(C[C@H]1CC[C@H](c3nnc(-c4cccnn4)o3)CC1)c(=O)n2C [Example 163]	–
35 to 23000	COc1ccc(-c2nc([C@H]3CC[C@H](Cn4c(=O)n(C)c5ccc(OC)cc54)CC3)no2)cc1 [Example 18, 5-Methoxy-3-{trans-4-[5-(4-methoxy-phenyl)[1,2,4]oxadiazol-3-yl]-cyclohexylmethyl}-1-methyl-1,3-dihydro-benzoimidazol-2-one]	–
35 to 23000	COc1ccc2c(c1)n(C[C@H]1CC[C@H](c3nnc(-c4cccc(OC(F)F)c4)o3)CC1)c(=O)n2C [Example 118]	–
35 to 23000	COc1ccc2c(c1)n(C[C@H]1CC[C@H](c3nnc(-c4ccc(OC)c(F)c4)o3)CC1)c(=O)n2C [Example 112]	–
35 to 23000	COc1ccc2c(c1)n(C[C@H]1CC[C@H](c3c[nH]c(NC(C)=O)n3)CC1)c(=O)n2C [Example 19, N-{4-[trans-4-(6-Methoxy-3-methyl-2-oxo-2,3-dihydro-benzoimidazol-1-ylmethyl)-cyclohexyl]-1H-imidazol-2-yl}-acetamide]	–
35 to 23000	COc1ccc2c(c1)n(C[C@H]1CC[C@H](c3nnc(-c4c(C)nn(C)c4C)o3)CC1)c(=O)n2C [Example 148]	–
